Laboratory results: patent US5559156A, “Method for treating animals infected with Babesia spp” (Glaxo Wellcome, Inc., priority 1994, dated 1996)

How the values were obtained:
Leishmania donovani = experiment: Activity against Leishmania donovani in vitro in mouse peritoneal macrophages; assay type: cell-based, Leishmania donovani (in macrophages of CDl mice)
Method: Leishmania donovani was routinely maintained in male golden hamsters (Wright'strain). Amastigotes were isolated from the spleen of infected hamsters 6-8 weeks after infection for use in experimental studies.
The procedure of Neal and Croft (Journal of Antimicrobial Chemotherapy 14, 463-475 (1984) was followed. Mouse peritoneal macrophages were isolated from the peritoneal cavity of outbred CDl mice. Macrophages were cultured in Labtek eight-well tissue chamber slides in RPMI 1640 medium plus 10% heat-inactivated foetal calf serum at 37° in a 5% CO2 -air mixture. Cultures were infected with freshly isolated amastigotes 24 hours before the start of drug treatment. Finally, infected macrophages where incubated in the presence of medium containing the test compound for 7 days, medium being replaced on days 1, 3 and 5 after infection.
The compound was tested in a five-fold dilution series from 50 μM with four replicates at each dilution. Fine suspensions of the compound for testing were prepared by dilution with medium of solutions initially prepared in echanol.
The proportion of infected macrophages in Giemsa stained preparations was determined after 7 days exposure to the test compound. The ED50 value was calculated by a sigmoidal analysis.

L. donovani = experiment: Activity against L. donovani in vivo in Balb/c mice; design: species or system L. donovani (in male Balb/c mice); settings: for % Suppression of Liver Amastigotes: 0.25% cellacol
Method: Male Balb/c mice were infected intravenously with 5×10^6 L. donovani amastigotes obtained as in Example 5. One week after infection mice were randomly divided into groups of 5 and treatment with test compound commenced, using cellacol as the vehicle for the test compound. Four days after the completion of treatment all mice were sacrificed. Their livers were removed, weighted and impression smears were fixed with methanol and […] stained. The activity of the compound was determined from the number of amastigotes/500 liver cells in treated and untreated groups.

B. divergens = experiment: Activity against B. divergens infection in gerbils, single oral dose at the time of infection; assay type: in vivo; settings: for % Activity / Days to 0.1% Parasitaemia / Days to Redwater / Maximum % Parasitaemia / % Control % Parasitaemia (day 3): single dose
Method: Gerbils, in groups of 5, were injected intraperitoneally with gerbil erythrocytes infected with 10^7 B divergens. At the time of infection, the gerbils were given, per os by stomach tube, a single dose of test compound, diluted in methyl cellulose. The gerbils were assessed for the time to reach 0.1% parasitaemia and the time to reach haemoglobinurea (redwater). The maximum parasitaemia reached and suppression of parasitaemia relative to controls were assessed and the activity of the test compound calculated.

B-divergens [1] = experiment: Activity against B-divergens in vitro in bovine red cells; assay type: cell-based; settings: Bos taurus, read-out: IC50 Bovine
Method: (§1) Activity against Babesiosis in vitro
(§2) The activity of the test compound against B-divergens in vitro, both in bovine and human red cells was measured and compared with the activities of standard anti-babesials.

B-divergens [2] = experiment: Activity against B-divergens in vitro in human red cells; assay type: cell-based; settings: for IC50: read-out: IC50 Human
Method: as §1, §2

B-divergens [3] = settings: two patients; cited from earlier work

Compound: O=C1C(O)=C(C2CCC(c3ccc(Cl)cc3)CC2)C(=O)c2ccccc21 (mixture of isomers) [2-[4-(4-chlorophenyl)cyclohexyl]-3-hydroxy-1,4-naphthoquinone]
- activity against L. donovani in vitro (Leishmania donovani; 50 μM): active at 50 μM concentration against L. donovani
- inhibition at 0.4 µM (Leishmania donovani; Leishmania donovani, Peritoneal macrophage, 168 h, 0.4 μM, 7 days): 6%
- inhibition at 2 µM (Leishmania donovani; Leishmania donovani, Peritoneal macrophage, 168 h, 2 μM, 7 days): 0%
- inhibition at 10 µM (Leishmania donovani; Leishmania donovani, Peritoneal macrophage, 168 h, 10 μM, 7 days): 14.7%
- inhibition at 50 µM (Leishmania donovani; Leishmania donovani, Peritoneal macrophage, 168 h, 50 μM, 7 days): 64.8%
- EC50 (Leishmania donovani; Leishmania donovani, Peritoneal macrophage, 168 h, 7 days exposure, sigmoidal analysis, P95% limits in brackets, read-out: ED50 [P95% limits]): 29.5 µM
- % Suppression of Liver Amastigotes (L. donovani; 100 mg/kg/day × 5, Oral): 0%
- % Suppression of Liver Amastigotes (L. donovani; 100 mg/kg/day × 5, Subcutaneous): 30.5%
- activity against L. donovani in vivo (L. donovani; subcutaneous): active when administered subcutaneously

Compound: O=C1C(O)=C(C2CCC(c3ccc(Cl)cc3)CC2)C(=O)c2ccccc21 (centres unmarked) [2-[4-(4-chlorophenyl)cyclohexyl]-3-hydroxy-1,4-napthoquinone]
- % Activity (B. divergens; 0.1 mg/kg per os): 0.0%
- Days to 0.1% Parasitaemia (B. divergens; 0.1 mg/kg per os): 1.0 ± 0.0 days
- Days to Redwater (B. divergens; 0.1 mg/kg per os): 3.0 ± 0.0 days
- Maximum % Parasitaemia (B. divergens; 0.1 mg/kg per os): > 40%
- % Control % Parasitaemia (day 3) (B. divergens; 0.1 mg/kg per os): 138.7 ± 18.6%
- % Activity (B. divergens; 1.0 mg/kg per os): 86.1%
- Days to 0.1% Parasitaemia (B. divergens; 1.0 mg/kg per os): 2.5 ± 0.57 days
- Days to Redwater (B. divergens; 1.0 mg/kg per os): 4.0 ± 0.82 days
- Maximum % Parasitaemia (B. divergens; 1.0 mg/kg per os): > 40%
- % Control % Parasitaemia (day 3) (B. divergens; 1.0 mg/kg per os): 13.9 ± 4.3%
- % Activity (B. divergens; 10.0 mg/kg per os): 100%
- Days to 0.1% Parasitaemia (B. divergens; 10.0 mg/kg per os): 5.6 ± 2.5 days
- Days to Redwater (B. divergens; 10.0 mg/kg per os): 9.2 ± 1.8 days
- Maximum % Parasitaemia (B. divergens; 10.0 mg/kg per os): 4.02%
- % Control % Parasitaemia (day 3) (B. divergens; 10.0 mg/kg per os): 0.0%
- % Activity (B. divergens; 50.0 mg/kg per os): 100%
- Days to 0.1% Parasitaemia (B. divergens; 50.0 mg/kg per os): > 10.0 days
- Days to Redwater (B. divergens; 50.0 mg/kg per os): > 10.0 days
- Maximum % Parasitaemia (B. divergens; 50.0 mg/kg per os): 0.0%
- % Control % Parasitaemia (day 3) (B. divergens; 50.0 mg/kg per os): 0.0%
- activity in vivo against B. divergens in gerbils (B. divergens; per os): active in vivo against B. divergens in gerbils

Compound: N=C(N)c1cccc(NC(=O)Nc2cccc(C(=N)N)c2)c1 [Amicarbalide isethionate]
- IC50 (B-divergens [1]; in vitro, bovine red cells): 460 nM
- IC50 (B-divergens [2]; in vitro, human red cells): 517 nM

Compound: CC[n+]1c(-c2ccccc2)c2cc(N)ccc2c2ccc(N)cc21 [Ethidium bromide]
- IC50 (B-divergens [1]): 47 nM
- IC50 (B-divergens [2]; Homo sapiens): 69 nM

Compound: O=C(Nc1cccc(C2=NCCN2)c1)Nc1cccc(C2=NCCN2)c1 [Imizol]
- IC50 (B-divergens [1]; in vitro, bovine red cells): 100 nM
- IC50 (B-divergens [2]; in vitro, human red cells): 310 nM
- use in patients to cure B-divergens (B-divergens [3]): used successfully in two patients to cure B-divergens

Compound: N=C(N)c1ccc(OCCCCCOc2ccc(C(=N)N)cc2)cc1 [Pentamidine isethionate]
- IC50 (B-divergens [1]; in vitro, bovine red cells): 360 nM
- IC50 (B-divergens [2]; in vitro, human red cells): 456 nM

Compound: C[n+]1cccc2cc(NC(=O)Nc3ccc4c(ccc[n+]4C)c3)ccc21 [Quinuronium sulphate]
- IC50 (B-divergens [1]; in vitro, bovine red cells): 34 nM
- IC50 (B-divergens [2]; in vitro, human red cells): 96 nM

Compound: O=C1C(O)=C([C@H]2CC[C@H](c3ccc(Cl)cc3)CC2)C(=O)c2ccccc21 [Test compound, 2-[trans-4-(4-chlorophenyl)cyclohexyl]-3-hydroxy-1,4-naphthoquinone]
- IC50 (B-divergens [1]; in vitro, bovine red cells): 17.9 nM
- IC50 (B-divergens [2]; in vitro, human red cells): 36.3 nM
- effectiveness in vitro compared with Imizol (B-divergens [2]; in vitro, Table 1 covers bovine and human red cells): more effective than Imizol in vitro
